Source: publication PMC9317966, “Structure-function analysis of the AMPK activator SC4 and identification of a potent pan AMPK activator” (Biochemical Journal, 2022)

Columns and labels:
Assay in all cases: Radiolabel SAMS kinase assay, immobilised GST-AMPK
Type in all cases: biochemical
Conditions in all cases: 1 µM compound
[1] = molecular target: T1, human GST-AMPK α1β2γ3 (Homo sapiens, UniProt O43741+Q13131)
T1 construct: triply transfected with full-length AMPK α1 or α2 (NH2-terminal GST fusion, pDEST27 vector); full-length AMPK α1 or α2 (NH2-terminal GST fusion, pDEST27 vector), β1 or β2 (COOH-terminal FLAG fusion, pcDNA3.1 vector); FLAG (C); made in house; host or cells: HEK293T/17 cells, transient triple transfection
From the text: (§1) We generated a series of compounds to investigate whether modification of the SC4 2-hydroxybiphenyl LHS fragment affects isoform selectivity, some of which (MSG008-MSG011) are presented in Table 1. We also synthesised compound MSG012 (example I-3-54 [32]), which was reported to activate α2β2γ1 with ∼100-fold greater potency compared with α1β1γ1. MSG012 differs from SC4 by substitution of the 2-hydroxyphenyl LHS fragment with 3-cyclohexen-4-yl-1-carboxylic acid, and 2-methylbenzoic acid RHS fragment with 1-hydroxy-N,N-dimethylcyclohexan-4-yl-1-carboxamide. Our initial screen involved measuring the activity of recombinant human GST-AMPK complexes expressed in HEK293T/17 cells and immobilised on glutathione-Sepharose (Supplementary Figure S1). Enzyme activity was measured by radiolabelling the synthetic SAMS peptide substrate in the absence or presence of 1 µM compound. Consistent with our previous characterisation, SC4 activated α1β1γ1, α2β1γ1 and α2β2γ1 >2.3-fold, and weakly activated α1β2γ1 1.3-fold (Figure 1A). […] The γ isoform had little influence on AMPK activation by MSG011 as most γ2 and γ3 complexes were activated >2.2-fold at 1 µM, with α1β2γ2 being the only exception (1.6-fold activation). […] Accordingly, MSG010, MSG011 and MSG012 can be classified as pan AMPK activators.
(§2) Adherent HEK293T/17 cells at ∼50% confluency were triply transfected with full-length AMPK α1 or α2 (NH2-terminal GST fusion, pDEST27 vector), β1 or β2 (COOH-terminal FLAG fusion, pcDNA3.1 vector), and γ1, γ2 or γ3 (NH2-terminal HA fusion, pMT2 vector) in the presence of FuGENE HD transfection reagent (Promega) as per the manufacturers protocol. Cells were harvested 48 hours post-transfection by first gently washing in ice cold phosphate buffered saline (PBS; Sigma–Aldrich), then scraping in ice cold lysis buffer (50 mM TRIS pH 7.5, 150 mM NaCl, 10% (v/v) glycerol, 50 mM NaF, 5 mM sodium pyrophosphate, 1% (v/v) Triton X-100, cOmplete protease inhibitor cocktail). Lysates were clarified by centrifugation (16 000g, 3 min, 4°C), flash frozen in liquid N2 and stored at −80°C until analysis. For radioactive kinase assays, AMPK was immobilised on glutathione Sepharose 4B resin (GE Healthcare) by incubation with lysates for 1.5 h at 4°C. Following centrifugation (1000g, 3 min, 4°C), the resin was washed twice in purification buffer (50 mM HEPES pH 7.4, 150 mM NaCl, 10% (v/v) glycerol, 0.02% (v/v) Tween-20), once in 50 mM HEPES pH 7.4 with 0.02% (v/v) Tween-20, then resuspended to a 50% slurry with 50 mM HEPES pH 7.4 and 10 µl added to the activity assays. For in solution kinase assays, α1β1γ1 AMPK was eluted from glutathione-Sepharose by incubating with purification buffer supplemented with 40 mM reduced glutathione (Sigma–Aldrich).
(§3) AMPK activity was determined by phosphorylation of the SAMS peptide (Purar Chemicals, sequence: NH2-HMRSAMSGLHLVKRR-COOH) in a 25 µl reaction volume containing 100 µM SAMS peptide, 5 mM MgCl2, 200 µM ATP, [γ-^32P]-ATP (PerkinElmer) and assay buffer (50 mM HEPES pH 7.4, 1 mM DTT and 0.02% (v/v) Tween-20) and purified AMPK. Phosphotransferase activity was conducted at 30°C for 10 min and reactions were quenched by spotting 15 µl onto phosphocellulose ion-exchange chromatography paper (made in-house), followed by repeated washes in 1% H3PO4 (Merck Millipore). Ultima Gold liquid scintillation fluid (5 ml; PerkinElmer) was added to vials containing dried phosphocellulose papers, and the level of ^32P-transfer to the SAMS peptide was determined using a Tri-Carb 2900TR liquid scintillation counter (PerkinElmer).

[2] = molecular target: T2, human GST-AMPK α1β1γ2 (Homo sapiens, UniProt Q13131+Q9Y478)
T2 construct: triply transfected with full-length AMPK α1 or α2 (NH2-terminal GST fusion, pDEST27 vector); full-length AMPK α1 or α2 (NH2-terminal GST fusion, pDEST27 vector), β1 or β2 (COOH-terminal FLAG fusion, pcDNA3.1 vector); FLAG (C); made in house; host or cells: HEK293T/17 cells, transient triple transfection
From the text: as §1, §2, §3

[3] = molecular target: T3, human GST-AMPK α1β1γ3 (Homo sapiens, UniProt Q13131+Q9Y478)
T3 construct: triply transfected with full-length AMPK α1 or α2 (NH2-terminal GST fusion, pDEST27 vector); full-length AMPK α1 or α2 (NH2-terminal GST fusion, pDEST27 vector), β1 or β2 (COOH-terminal FLAG fusion, pcDNA3.1 vector); FLAG (C); made in house; host or cells: HEK293T/17 cells, transient triple transfection
From the text: as §1, §2, §3

[4] = molecular target: T4, human GST-AMPK α2β2γ2 (Homo sapiens, UniProt O43741+P54646)
T4 construct: triply transfected with full-length AMPK α1 or α2 (NH2-terminal GST fusion, pDEST27 vector); full-length AMPK α1 or α2 (NH2-terminal GST fusion, pDEST27 vector), β1 or β2 (COOH-terminal FLAG fusion, pcDNA3.1 vector); FLAG (C); made in house; host or cells: HEK293T/17 cells, transient triple transfection
From the text: as §1, §2, §3

[5] = molecular target: T5, human GST-AMPK α2β1γ3 (Homo sapiens, UniProt P54646+Q9Y478)
T5 construct: triply transfected with full-length AMPK α1 or α2 (NH2-terminal GST fusion, pDEST27 vector); full-length AMPK α1 or α2 (NH2-terminal GST fusion, pDEST27 vector), β1 or β2 (COOH-terminal FLAG fusion, pcDNA3.1 vector); FLAG (C); made in house; host or cells: HEK293T/17 cells, transient triple transfection
From the text: as §1, §2, §3

[6] = molecular target: T6, human GST-AMPK α2β1γ2 (Homo sapiens, UniProt P54646+Q9Y478)
T6 construct: triply transfected with full-length AMPK α1 or α2 (NH2-terminal GST fusion, pDEST27 vector); full-length AMPK α1 or α2 (NH2-terminal GST fusion, pDEST27 vector), β1 or β2 (COOH-terminal FLAG fusion, pcDNA3.1 vector); FLAG (C); made in house; host or cells: HEK293T/17 cells, transient triple transfection
From the text: as §1, §2, §3

[7] = molecular target: T7, human GST-AMPK α2β2γ3 (Homo sapiens, UniProt O43741+P54646)
T7 construct: triply transfected with full-length AMPK α1 or α2 (NH2-terminal GST fusion, pDEST27 vector); full-length AMPK α1 or α2 (NH2-terminal GST fusion, pDEST27 vector), β1 or β2 (COOH-terminal FLAG fusion, pcDNA3.1 vector); FLAG (C); made in house; host or cells: HEK293T/17 cells, transient triple transfection
From the text: as §1, §2, §3

[8] = molecular target: T8, human GST-AMPK α1β2γ2 (Homo sapiens, UniProt O43741+Q13131)
T8 construct: triply transfected with full-length AMPK α1 or α2 (NH2-terminal GST fusion, pDEST27 vector); full-length AMPK α1 or α2 (NH2-terminal GST fusion, pDEST27 vector), β1 or β2 (COOH-terminal FLAG fusion, pcDNA3.1 vector); FLAG (C); made in house; host or cells: HEK293T/17 cells, transient triple transfection
From the text: as §1, §2, §3

Measured: fold AMPK activation relative to vehicle

T7 sequence (P54646 whole entry, the tested form may be a part): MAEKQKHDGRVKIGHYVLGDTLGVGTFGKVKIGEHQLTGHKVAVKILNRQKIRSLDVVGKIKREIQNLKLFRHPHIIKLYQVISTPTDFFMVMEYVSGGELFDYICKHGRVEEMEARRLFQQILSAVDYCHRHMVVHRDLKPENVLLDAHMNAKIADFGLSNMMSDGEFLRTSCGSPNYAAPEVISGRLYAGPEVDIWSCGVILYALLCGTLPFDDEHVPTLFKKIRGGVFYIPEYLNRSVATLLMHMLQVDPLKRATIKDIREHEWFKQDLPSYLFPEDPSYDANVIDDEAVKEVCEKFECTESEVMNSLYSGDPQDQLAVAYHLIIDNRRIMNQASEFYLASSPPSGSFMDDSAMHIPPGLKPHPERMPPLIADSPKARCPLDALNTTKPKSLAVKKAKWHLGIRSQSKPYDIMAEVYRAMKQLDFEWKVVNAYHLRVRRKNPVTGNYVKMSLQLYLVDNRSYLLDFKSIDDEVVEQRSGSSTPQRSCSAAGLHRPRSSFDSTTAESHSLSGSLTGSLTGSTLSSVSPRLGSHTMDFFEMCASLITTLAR
T7 sequence (O43741 whole entry, the tested form may be a part): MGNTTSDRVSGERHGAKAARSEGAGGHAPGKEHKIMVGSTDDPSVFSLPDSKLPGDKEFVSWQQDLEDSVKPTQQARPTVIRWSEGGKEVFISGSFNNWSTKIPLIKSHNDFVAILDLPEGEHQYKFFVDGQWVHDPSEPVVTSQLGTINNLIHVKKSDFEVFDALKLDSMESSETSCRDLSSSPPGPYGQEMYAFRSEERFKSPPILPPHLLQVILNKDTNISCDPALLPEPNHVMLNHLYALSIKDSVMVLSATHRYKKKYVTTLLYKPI
T7 sequence (Q9UGI9 whole entry partner, the tested form may be a part): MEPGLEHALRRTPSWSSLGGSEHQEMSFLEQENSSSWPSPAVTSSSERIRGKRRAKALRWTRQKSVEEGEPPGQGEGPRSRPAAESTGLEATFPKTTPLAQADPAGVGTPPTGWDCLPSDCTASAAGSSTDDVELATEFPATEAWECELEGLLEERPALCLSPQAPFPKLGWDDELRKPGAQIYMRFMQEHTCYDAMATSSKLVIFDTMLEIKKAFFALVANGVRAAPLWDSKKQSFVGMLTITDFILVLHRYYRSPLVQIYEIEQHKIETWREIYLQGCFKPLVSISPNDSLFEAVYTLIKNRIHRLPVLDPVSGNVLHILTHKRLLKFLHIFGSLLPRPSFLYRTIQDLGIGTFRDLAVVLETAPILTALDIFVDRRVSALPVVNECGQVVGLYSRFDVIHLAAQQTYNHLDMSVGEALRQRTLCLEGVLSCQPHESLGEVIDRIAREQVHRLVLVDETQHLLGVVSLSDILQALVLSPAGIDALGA
T6 sequence (P54646 whole entry, the tested form may be a part): as the sequence (P54646 whole entry, the tested form may be a part) above
T6 sequence (Q9Y478 whole entry, the tested form may be a part): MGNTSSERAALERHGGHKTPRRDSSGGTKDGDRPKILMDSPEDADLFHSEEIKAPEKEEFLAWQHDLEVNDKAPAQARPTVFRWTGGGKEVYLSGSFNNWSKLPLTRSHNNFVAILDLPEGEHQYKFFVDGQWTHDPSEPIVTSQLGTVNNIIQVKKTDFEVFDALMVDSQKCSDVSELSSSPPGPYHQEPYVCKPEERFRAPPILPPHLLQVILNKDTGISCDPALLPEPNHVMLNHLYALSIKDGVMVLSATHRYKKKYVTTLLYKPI
T6 sequence (Q9UGJ0 whole entry partner, the tested form may be a part): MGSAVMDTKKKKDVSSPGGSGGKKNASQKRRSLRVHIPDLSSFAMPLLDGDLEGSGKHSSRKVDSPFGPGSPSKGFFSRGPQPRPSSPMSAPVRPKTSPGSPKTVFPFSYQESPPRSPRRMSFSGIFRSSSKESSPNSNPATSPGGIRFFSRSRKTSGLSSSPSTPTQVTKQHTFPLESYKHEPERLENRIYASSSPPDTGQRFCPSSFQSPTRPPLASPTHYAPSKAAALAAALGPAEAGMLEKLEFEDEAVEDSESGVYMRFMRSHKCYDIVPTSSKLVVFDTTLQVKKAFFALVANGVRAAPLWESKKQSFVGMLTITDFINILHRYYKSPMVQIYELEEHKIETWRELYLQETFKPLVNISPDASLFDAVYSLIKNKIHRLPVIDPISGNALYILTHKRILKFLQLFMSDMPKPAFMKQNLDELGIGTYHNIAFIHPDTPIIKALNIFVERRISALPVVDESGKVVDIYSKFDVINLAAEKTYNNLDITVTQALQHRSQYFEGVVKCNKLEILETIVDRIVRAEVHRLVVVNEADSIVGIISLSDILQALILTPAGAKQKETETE
T4 sequence (P54646 whole entry, the tested form may be a part): as the sequence (P54646 whole entry, the tested form may be a part) above
T4 sequence (O43741 whole entry, the tested form may be a part): as the sequence (O43741 whole entry, the tested form may be a part) above
T4 sequence (Q9UGJ0 whole entry partner, the tested form may be a part): as the sequence (Q9UGJ0 whole entry partner, the tested form may be a part) above
T5 sequence (P54646 whole entry, the tested form may be a part): as the sequence (P54646 whole entry, the tested form may be a part) above
T5 sequence (Q9Y478 whole entry, the tested form may be a part): as the sequence (Q9Y478 whole entry, the tested form may be a part) above
T5 sequence (Q9UGI9 whole entry partner, the tested form may be a part): as the sequence (Q9UGI9 whole entry partner, the tested form may be a part) above
T1 sequence (Q13131 whole entry, the tested form may be a part): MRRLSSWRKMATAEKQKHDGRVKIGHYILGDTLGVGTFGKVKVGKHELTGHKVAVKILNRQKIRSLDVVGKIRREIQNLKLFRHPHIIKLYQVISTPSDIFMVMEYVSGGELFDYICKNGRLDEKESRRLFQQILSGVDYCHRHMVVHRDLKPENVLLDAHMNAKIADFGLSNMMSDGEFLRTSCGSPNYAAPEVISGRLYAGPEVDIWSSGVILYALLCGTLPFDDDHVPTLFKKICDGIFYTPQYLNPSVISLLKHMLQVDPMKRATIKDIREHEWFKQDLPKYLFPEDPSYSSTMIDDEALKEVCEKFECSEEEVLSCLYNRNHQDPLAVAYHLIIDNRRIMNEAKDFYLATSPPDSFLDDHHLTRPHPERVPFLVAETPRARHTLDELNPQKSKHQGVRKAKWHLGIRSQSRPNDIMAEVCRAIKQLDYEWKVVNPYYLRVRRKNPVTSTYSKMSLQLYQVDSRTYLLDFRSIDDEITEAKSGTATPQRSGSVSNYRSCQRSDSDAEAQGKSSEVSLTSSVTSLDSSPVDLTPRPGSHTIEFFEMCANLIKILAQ
T1 sequence (O43741 whole entry, the tested form may be a part): as the sequence (O43741 whole entry, the tested form may be a part) above
T1 sequence (Q9UGI9 whole entry partner, the tested form may be a part): as the sequence (Q9UGI9 whole entry partner, the tested form may be a part) above
T8 sequence (Q13131 whole entry, the tested form may be a part): as the sequence (Q13131 whole entry, the tested form may be a part) above
T8 sequence (O43741 whole entry, the tested form may be a part): as the sequence (O43741 whole entry, the tested form may be a part) above
T8 sequence (Q9UGJ0 whole entry partner, the tested form may be a part): as the sequence (Q9UGJ0 whole entry partner, the tested form may be a part) above
T3 sequence (Q13131 whole entry, the tested form may be a part): as the sequence (Q13131 whole entry, the tested form may be a part) above
T3 sequence (Q9Y478 whole entry, the tested form may be a part): as the sequence (Q9Y478 whole entry, the tested form may be a part) above
T3 sequence (Q9UGI9 whole entry partner, the tested form may be a part): as the sequence (Q9UGI9 whole entry partner, the tested form may be a part) above
T2 sequence (Q13131 whole entry, the tested form may be a part): as the sequence (Q13131 whole entry, the tested form may be a part) above
T2 sequence (Q9Y478 whole entry, the tested form may be a part): as the sequence (Q9Y478 whole entry, the tested form may be a part) above
T2 sequence (Q9UGJ0 whole entry partner, the tested form may be a part): as the sequence (Q9UGJ0 whole entry partner, the tested form may be a part) above

CC(=O)NC1CC=C(c2ccc(-c3nc4nc(Oc5ccc(C)c(C(=O)O)c5)[nH]c4cc3Cl)cc2)CC1 (centres unmarked) [MSG011, 5-((5-(4′-Acetamido-2′,3′,4′,5′-tetrahydro-[1,1′-biphenyl]-4-yl)-6-chloro-1H-imidazo[4,5-b]pyridin-2-yl)oxy)-2-methylbenzoic acid]
1.6 fold: [8]
> 2.2 fold: all other assays above
